Experiments:
Format in all cases: biochemical
Conditions in all cases: 1 μM inhibitor concentration
[1] = molecular target: PDK1 (Homo sapiens (Human), UniProt O15530); experiment: PDK1 kinase selectivity assay
Experimental: PDK1 (5-20 mU diluted in 50 mM Tris pH 7.5, 0.05% b-mercaptoethanol, 1 mg/ml BSA) is assayed against PDKtide ([…]-[…]) in a final volume of 25.5 μl containing 50 mM Tris pH 7.5, 0.05% b-mercaptoethanol, 100 μM substrate peptide, 10 mM magnesium acetate and 0.02 mM [33P-g-ATP](50-1000 cpm/pmole) and incubated for 30 min at room temperature Assays are stopped by addition of 5 μl of 0.5 M (3%) orthophosphoric acid and then harvested onto P81 Unifilter plates with a wash buffer of 50 mM orthophosphoric acid.

[2] = molecular target: CAMKKb (Homo sapiens (Human), UniProt Q96RR4); experiment: CAMKKb kinase selectivity assay
Experimental: (§1) 5-20 mU of CAMKKb (diluted in 50 mM Tris (pH 7.5), 0.1 mM EGTA, 1 mg/ml BSA, 0.1%, b-Mercaptoethanol) is assayed against substrate peptide ([…]) in a final volume of 25.5 μl containing 50 mM Tris (pH 7.5), 0.1 mM EGTA, 0.5 mM CaCl2, 0.3 μM calmodulin, 0.1%, b-Mercaptoethanol, 300 μM substrate peptide, 10 mM magnesium acetate and 0.02 mM [33P-g-ATP](500-1000 cpm/pmole) and incubated for 30 mins at room temperature. Assays are stopped by addition of 5 μl of 0.5M (3%) orthophosphoric acid. Assays are harvested onto P81 Unifilter plates using a wash buffer of 50 mM orthophosphoric acid.

[3] = molecular target: CHK1 (Homo sapiens (Human), UniProt O14757); experiment: CHK1 kinase selectivity assay
CHK1, sequence (O14757 whole entry, species assumed): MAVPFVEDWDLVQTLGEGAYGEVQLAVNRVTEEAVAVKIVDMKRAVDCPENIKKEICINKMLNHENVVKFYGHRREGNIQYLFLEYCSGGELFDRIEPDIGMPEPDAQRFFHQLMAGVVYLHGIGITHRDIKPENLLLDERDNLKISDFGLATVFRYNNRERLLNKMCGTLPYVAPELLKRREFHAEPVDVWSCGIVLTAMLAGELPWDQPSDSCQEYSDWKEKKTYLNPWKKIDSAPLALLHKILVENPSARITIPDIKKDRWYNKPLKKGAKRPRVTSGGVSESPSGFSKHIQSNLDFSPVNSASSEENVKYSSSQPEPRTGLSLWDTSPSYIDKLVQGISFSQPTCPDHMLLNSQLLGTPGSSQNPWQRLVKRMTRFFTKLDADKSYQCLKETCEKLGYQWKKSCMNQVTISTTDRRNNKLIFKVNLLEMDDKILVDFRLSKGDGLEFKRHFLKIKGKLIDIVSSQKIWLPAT
Experimental: CHK1 (5-20 mU diluted in 20 mM MOPS pH 7.5, 1 mM EDTA, 0.1% b-mercaptoethanol, 0.01% Brij-35, 5% glycerol, 1 mg/ml BSA) is assayed against CHKtide substrate peptide ([…]) in a final volume of 25.5 μl containing 8 mM MOPS pH 7.0, 0.2 mM EDTA, 200 μM CHKtide, 10 mM magnesium acetate and 0.02 mM [33P-g-ATP](50-1000 cpm/pmole) and incubated for 30 min at room temperature Assays are stopped by addition of 5 μl of 0.5 M (3%) orthophosphoric acid and then harvested onto P81 Unifilter plates with a wash buffer of 50 mM orthophosphoric acid.

[4] = molecular target: GSK3b (Homo sapiens (Human), UniProt P49841); experiment: GSK3b kinase selectivity assay
GSK3b, sequence (P49841 whole entry, species assumed): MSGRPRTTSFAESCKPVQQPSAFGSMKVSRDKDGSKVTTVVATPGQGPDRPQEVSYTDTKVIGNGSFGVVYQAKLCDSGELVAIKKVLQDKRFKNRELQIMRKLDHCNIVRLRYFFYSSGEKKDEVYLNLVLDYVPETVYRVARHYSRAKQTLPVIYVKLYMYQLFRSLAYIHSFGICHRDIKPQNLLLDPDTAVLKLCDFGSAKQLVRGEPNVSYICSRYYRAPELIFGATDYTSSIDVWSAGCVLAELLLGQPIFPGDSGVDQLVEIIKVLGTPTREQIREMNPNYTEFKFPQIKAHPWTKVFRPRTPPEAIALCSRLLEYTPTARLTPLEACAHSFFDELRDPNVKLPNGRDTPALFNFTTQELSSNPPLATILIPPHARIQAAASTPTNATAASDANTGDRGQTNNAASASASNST
Experimental: GSK3b (5-20 mU diluted in 20 mM MOPS pH 7.5, 1 mM EDTA, 0.01% Brij35, 5% glycerol, 0.1% b-mercaptoethanol, 1 mg/ml BSA) is assayed against Phospho-GS2 peptide ([…](PO4)EDEEE) in a final volume of 25.5 μl containing 8 mM MOPS pH 7.0, 0.2 mM EDTA, 20 μM Phospho GS2 peptide, 10 mM magnesium acetate and 0.005 mM [33P-g-ATP] (50-1000 cpm/pmole) and incubated for 30 min at room temperature. Assays are stopped by addition of 5 μl of 0.5 M (3%) orthophosphoric acid and then harvested onto P81 Unifilter plates with a wash buffer of 50 mM orthophosphoric acid.

[5] = molecular target: DYRK1A (Homo sapiens (Human), UniProt Q13627); experiment: DYRK1A kinase selectivity assay
Experimental: DYRK 1A (5-20 mU of diluted in 50 mM Tris pH7.5, 0.1 mM EGTA) is assayed against Woodtide ([…]) in a final volume of 25.5 μl containing 50 mM Tris pH 7.5, 0.1 mM EGTA, 350 μM substrate peptide, 10 mM Magnesium acetate and 0.05 mM [33P-g-ATP](50-1000 cpm/pmole) and incubated for 30 min at room temperature. Assays are stopped by addition of 5 μl of 0.5 M (3%) orthophosphoric acid and then harvested onto P81 Unifilter plates with a wash buffer of 50 mM orthophosphoric acid.

[6] = molecular target: IKKb (Homo sapiens (Human), UniProt O14920); experiment: IKKb kinase selectivity assay
IKKb, sequence (O14920 whole entry, species assumed): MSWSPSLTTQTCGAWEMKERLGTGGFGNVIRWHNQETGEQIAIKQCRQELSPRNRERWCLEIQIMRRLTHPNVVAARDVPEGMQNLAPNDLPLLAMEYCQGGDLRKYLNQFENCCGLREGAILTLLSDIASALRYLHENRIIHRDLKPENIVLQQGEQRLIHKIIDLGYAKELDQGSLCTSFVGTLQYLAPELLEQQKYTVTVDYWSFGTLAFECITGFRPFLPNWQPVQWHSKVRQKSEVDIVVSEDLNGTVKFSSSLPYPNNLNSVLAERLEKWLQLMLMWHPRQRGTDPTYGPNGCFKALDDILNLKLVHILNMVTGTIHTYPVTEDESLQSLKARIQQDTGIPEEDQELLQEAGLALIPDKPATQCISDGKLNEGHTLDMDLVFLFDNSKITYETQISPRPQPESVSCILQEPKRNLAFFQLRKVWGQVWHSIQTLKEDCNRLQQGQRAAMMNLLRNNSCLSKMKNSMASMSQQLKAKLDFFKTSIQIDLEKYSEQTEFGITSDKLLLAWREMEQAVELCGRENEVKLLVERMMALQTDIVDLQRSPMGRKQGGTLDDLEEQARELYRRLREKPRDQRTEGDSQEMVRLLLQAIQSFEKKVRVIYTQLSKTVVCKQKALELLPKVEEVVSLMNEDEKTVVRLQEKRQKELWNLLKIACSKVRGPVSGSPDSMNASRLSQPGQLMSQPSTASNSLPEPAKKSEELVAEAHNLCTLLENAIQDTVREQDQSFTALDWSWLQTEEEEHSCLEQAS
Experimental: as §1, with “IKKb” for “CAMKKb”, “[…]” for “25.5”, “EGTA,” for “EGTA, 0.5 mM CaCl2, 0.3 μM calmodulin,”, “0.005” for “0.02”

[7] = molecular target: EPH-B3 (Homo sapiens (Human), UniProt P54753); experiment: EPH-B3 kinase selectivity assay
EPH-B3, sequence (P54753 34-998, species assumed): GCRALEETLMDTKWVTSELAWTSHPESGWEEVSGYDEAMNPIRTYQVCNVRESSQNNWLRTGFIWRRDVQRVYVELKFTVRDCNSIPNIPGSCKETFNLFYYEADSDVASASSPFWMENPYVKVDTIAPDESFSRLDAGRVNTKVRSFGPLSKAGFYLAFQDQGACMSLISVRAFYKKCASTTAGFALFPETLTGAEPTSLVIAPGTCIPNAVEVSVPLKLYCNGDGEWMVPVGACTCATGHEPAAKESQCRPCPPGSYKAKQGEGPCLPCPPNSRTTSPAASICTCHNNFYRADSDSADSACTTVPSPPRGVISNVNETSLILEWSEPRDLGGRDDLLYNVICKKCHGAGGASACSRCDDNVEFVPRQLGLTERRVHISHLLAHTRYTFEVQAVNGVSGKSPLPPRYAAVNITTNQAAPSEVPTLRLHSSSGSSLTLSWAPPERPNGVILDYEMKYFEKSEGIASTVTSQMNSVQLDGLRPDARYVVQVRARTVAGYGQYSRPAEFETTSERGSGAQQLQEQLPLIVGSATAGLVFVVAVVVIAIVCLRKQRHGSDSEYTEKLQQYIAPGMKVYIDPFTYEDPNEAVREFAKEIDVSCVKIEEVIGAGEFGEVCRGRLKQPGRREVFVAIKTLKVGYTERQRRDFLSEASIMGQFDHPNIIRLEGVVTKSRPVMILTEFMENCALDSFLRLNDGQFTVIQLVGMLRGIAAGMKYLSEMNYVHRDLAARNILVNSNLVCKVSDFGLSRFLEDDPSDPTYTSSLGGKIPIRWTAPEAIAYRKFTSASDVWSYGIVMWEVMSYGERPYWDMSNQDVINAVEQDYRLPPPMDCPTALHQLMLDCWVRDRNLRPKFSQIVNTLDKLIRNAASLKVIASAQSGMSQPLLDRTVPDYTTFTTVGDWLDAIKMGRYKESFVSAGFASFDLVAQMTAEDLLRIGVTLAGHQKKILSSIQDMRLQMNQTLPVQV
Experimental: (§2) EPH-B3 (5-20 mU diluted in 50 mM Tris pH 7.5, 0.1 mM EGTA, 1 mg/ml BSA) is assayed against a substrate peptide (Poly Glut Tyr) in a final volume of 25.5 μl containing 50 mM Tris pH 7.5, 1 mg/ml substrate peptide, 10 mM magnesium acetate and 0.005 mM [33P-g-ATP] (50-1000 cpm/pmole) and incubated for 30 min at room temperature. Assays are stopped by addition of 5 μl of 0.5 M (3%) orthophosphoric acid and then harvested onto P81 Unifilter plates with a wash buffer of 50 mM orthophosphoric acid.

[8] = molecular target: IRR (Homo sapiens (Human), UniProt P14616); experiment: IRR kinase selectivity assay
IRR, sequence (P14616 27-1297, species assumed): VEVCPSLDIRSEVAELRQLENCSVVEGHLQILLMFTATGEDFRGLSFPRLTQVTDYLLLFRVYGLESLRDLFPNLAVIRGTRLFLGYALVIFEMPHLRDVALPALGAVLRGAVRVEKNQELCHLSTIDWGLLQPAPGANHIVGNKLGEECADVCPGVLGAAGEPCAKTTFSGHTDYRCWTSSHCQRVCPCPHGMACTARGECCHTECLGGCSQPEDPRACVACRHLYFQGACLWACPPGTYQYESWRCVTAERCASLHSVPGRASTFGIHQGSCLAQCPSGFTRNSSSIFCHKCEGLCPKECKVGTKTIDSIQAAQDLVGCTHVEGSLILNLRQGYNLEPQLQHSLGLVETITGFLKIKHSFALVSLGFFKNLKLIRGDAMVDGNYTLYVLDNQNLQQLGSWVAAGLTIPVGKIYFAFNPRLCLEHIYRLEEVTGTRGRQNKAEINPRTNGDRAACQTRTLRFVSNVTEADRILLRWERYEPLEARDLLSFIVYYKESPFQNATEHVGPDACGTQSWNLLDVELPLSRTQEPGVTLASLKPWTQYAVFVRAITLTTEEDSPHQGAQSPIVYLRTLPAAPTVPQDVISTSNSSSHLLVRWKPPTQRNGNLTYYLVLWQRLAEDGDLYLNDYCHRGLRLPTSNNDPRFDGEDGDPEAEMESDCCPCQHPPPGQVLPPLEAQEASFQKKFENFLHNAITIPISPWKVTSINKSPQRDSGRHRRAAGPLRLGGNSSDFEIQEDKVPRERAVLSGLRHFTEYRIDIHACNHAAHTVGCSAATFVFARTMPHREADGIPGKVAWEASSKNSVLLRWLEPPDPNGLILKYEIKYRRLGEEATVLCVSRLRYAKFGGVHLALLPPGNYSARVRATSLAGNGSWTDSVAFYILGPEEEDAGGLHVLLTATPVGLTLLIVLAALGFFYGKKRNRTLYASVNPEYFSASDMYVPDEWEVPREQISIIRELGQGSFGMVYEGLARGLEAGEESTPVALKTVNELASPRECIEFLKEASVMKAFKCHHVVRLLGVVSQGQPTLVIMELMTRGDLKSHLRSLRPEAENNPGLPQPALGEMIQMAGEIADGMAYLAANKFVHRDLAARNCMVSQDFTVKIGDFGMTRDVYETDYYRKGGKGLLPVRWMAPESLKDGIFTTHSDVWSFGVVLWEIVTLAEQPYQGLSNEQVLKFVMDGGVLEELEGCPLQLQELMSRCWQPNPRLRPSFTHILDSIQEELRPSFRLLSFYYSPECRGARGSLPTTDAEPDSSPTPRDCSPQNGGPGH
Experimental: 5-20 mU of IRR (diluted in 50 mM Hepes (pH 7.5), 0.1 mM EGTA) is assayed against MBP in a final volume of 25.5 μl containing 50 mM Hepes (pH 7.5), 0.1 mM EGTA, 0.33 mg/ml MBP, 10 mM magnesium acetate and 0.005 mM [33P-g-ATP](500-1000 cpm/pmole) and incubated for 30 mins at room temperature. Assays are stopped by addition of 5 μl of 0.5M (3%) orthophosphoric acid. Assays are harvested onto P81 Unifilter plates using a wash buffer of 50 mM orthophosphoric acid.

[9] = test system: VEG-FR; experiment: VEG-FR kinase selectivity assay
Experimental: as §2, with “VEG-FR (5-20” for “EPH-B3 (5-20”, “peptide ([…])” for “peptide (Poly Glut Tyr)”, “7.5, 300 µM” for “7.5, 1 mg/ml”, “and 0.02” for “and 0.005”

PDK1, sequence (O15530 whole entry): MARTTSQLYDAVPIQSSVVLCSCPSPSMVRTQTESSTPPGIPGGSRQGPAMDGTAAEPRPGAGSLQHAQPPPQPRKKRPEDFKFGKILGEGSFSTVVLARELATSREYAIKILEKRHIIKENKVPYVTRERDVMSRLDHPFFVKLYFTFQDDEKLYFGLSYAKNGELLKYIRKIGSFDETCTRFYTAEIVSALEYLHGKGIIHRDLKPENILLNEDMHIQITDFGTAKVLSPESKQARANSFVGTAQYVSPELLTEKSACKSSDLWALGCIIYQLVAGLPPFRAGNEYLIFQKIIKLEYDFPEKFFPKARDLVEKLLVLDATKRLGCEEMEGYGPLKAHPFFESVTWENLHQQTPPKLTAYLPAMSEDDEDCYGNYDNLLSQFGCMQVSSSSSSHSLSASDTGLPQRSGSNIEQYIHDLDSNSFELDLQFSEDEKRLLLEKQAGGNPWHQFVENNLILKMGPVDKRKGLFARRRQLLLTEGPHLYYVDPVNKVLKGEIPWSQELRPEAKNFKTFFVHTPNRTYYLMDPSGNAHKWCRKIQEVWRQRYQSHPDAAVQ

Compound	percentage inhibition of PDK1 [1] [percentage]	percentage inhibition of CAMKKb [2] [percentage]	percentage inhibition of CHK1 [3] [percentage]	percentage inhibition of GSK3b [4] [percentage]	percentage inhibition of DYRK1A [5] [percentage]	percentage inhibition of IKKb [6] [percentage]	percentage inhibition of EPH-B3 [7] [percentage]	percentage inhibition of IRR [8] [percentage]	percentage inhibition of VEG-FR [9] [percentage]
c1cc2[nH]nc3c2c(n1)N(C1CCC1)CCC3 [Example 22, 6-cyclobutyl-6,7,8,9-tetrahydro-2H-1,2,5,6-tetraazabenzo[cd]azulene]	7	5	2	16	16	2	0	8	0
c1cc2[nH]nc3c2c(n1)N(C1CCCC1)CCC3 [Example 23, 6-cyclopentyl-6,7,8,9-tetrahydro-2H-1,2,5,6-tetraazabenzo[cd]azulene]	0	7	0	0	0	0	0	4	–
c1cc2[nH]nc3c2c(n1)N(C1CCOCC1)CCC3 [Example 29, 6-(tetrahydro-2H-pyran-4-yl)-6,7,8,9-tetrahydro-2H-1,2,5,6-tetraazabenzo[cd]azulene]	2	0	0	0	4	0	0	6	9
CN1CCC(N2Cc3ccccc3-c3n[nH]c4ccnc2c34)CC1 [Example 55]	42	0	42	0	8	6	12	18	19
CC(C)n1ncc2c1CN(C1CCN(C)CC1)c1nccc3[nH]nc-2c13 [Example 68]	21	0	28	0	0	4	5	1	42

From patent US10918645B2 (LIFEARC, priority 2016, dated 2021)
